# Test results from PMC6321136, “Combined In Vitro Studies and in Silico Target Fishing for the Evaluation of the Biological Activities of Diphylleia cymosa and Podophyllum hexandrum” (Molecules, 2018).
# Like-named read-outs stand apart in the source and are kept apart here.
# Key:
# [1] = molecular target: T1, acetylcholinesterase enzyme (Electropardus electricous type VI-S) (Electrophorus electricus, UniProt O42275); experiment: AChE bioautographic assay (TLC); type: biochemical; parameters: key: -: not active; +: slight inhibition; ++++: strong inhibition; settings: intensity of white bands
# T1 construct: purchased Sigma-Aldrich, St. Louis, MO, USA type VI-S (catalogue number not given)
# Experimental: The bioautographic assay was performed by thin layer chromatography (TLC) according to the method proposed by Marston, Kissling and Hostettman. The extracts were solubilized in methanol (Merck) at 20 mg/mL, and a portion of 10 μL of this solution was applied on a TLC plate (silica gel 60 F254, Merck, Darmstadt, Germany), which was eluted with CHCl3:MeOH (9:1). The acetylcholinesterase enzyme (Electropardus electricous type VI-S, Sigma-Aldrich, St. Louis, MO, USA) solution was prepared by diluting 1 KU of the enzyme in 30 mL of Tris/HCl buffer, pH 7.8, with the addition of 30 mg of bovine serum albumin (BSA). The enzyme solution was sprayed on the TLC plate and incubated in a humid chamber at 37 °C for 20 min. The substrate solution was prepared using 1-naphthyl acetate (2.5 mg/mL) and Fast Blue B salt (2.5 mg/mL), and sprayed on the TLC plate after the incubation period. […] The result was expressed by the intensity of the white bands observed.
# [2] = parameters: method as in Dar et al. [63]; settings: ref Dar et al. [63]; cited from earlier work
# [3] = test system: 1-acylglycerol-3-phosphate O-acyltransferase ABHD5; parameters: method as in PubChem Bioassay AID 493035; settings: ref PubChem Bioassay AID 493035; cited from earlier work
# [4] = test system: Activators, heat shock response; parameters: method as in PubChem Bioassay AID 743228; settings: ref PubChem Bioassay AID 743228; cited from earlier work
# [5] = test system: Agonist, endoplasmic reticulum stress response; parameters: method as in PubChem Bioassay AID 1159519; settings: ref PubChem Bioassay AID 1159519; cited from earlier work
# [6] = test system: Agonist, glucocorticoid receptor (GR); parameters: method as in PubChem Bioassay AID 720719; settings: ref PubChem Bioassay AID 720719; cited from earlier work
# Agonist, hypoxia = test system: Agonist, hypoxia; parameters: method as in PubChem Bioassay AID 1224894; settings: ref PubChem Bioassay AID 1224894; cited from earlier work
# Agonist, p53 = test system: Agonist, p53; parameters: method as in PubChem Bioassay AID 720552; settings: ref PubChem Bioassay AID 720552; cited from earlier work
# [7] = test system: Agonist, thyroid stimulating hormone receptor (TSHR); parameters: method as in PubChem Bioassay AID 1224843; settings: ref PubChem Bioassay AID 1224843; cited from earlier work
# Angiogenesis model = test system: Angiogenesis model; parameters: method as in PubChem Bioassay AID 1117337; settings: ref PubChem Bioassay AID 1117337; cited from earlier work
# Anticancer, Colon Tumor = test system: Anticancer, Colon Tumor; parameters: method as in PubChem Bioassay AID 771; settings: ref PubChem Bioassay AID 771; cited from earlier work
# Anticancer, Lung Tumor = test system: Anticancer, Lung Tumor; parameters: method as in PubChem Bioassay AID 270; settings: ref PubChem Bioassay AID 270; cited from earlier work
# Anticancer, Sarcoma = test system: Anticancer, Sarcoma; parameters: method as in PubChem Bioassay AID 292; settings: ref PubChem Bioassay AID 292; cited from earlier work
# Anti-Inflammatory model [8] = test system: Anti-Inflammatory model; parameters: method as in PubChem Bioassay AID 438; settings: ref PubChem Bioassay AID 438; cited from earlier work
# Anti-Inflammatory model [9] = test system: Anti-Inflammatory model; parameters: method as in PubChem Bioassay AID 457; settings: ref PubChem Bioassay AID 457; cited from earlier work
# Anti-Inflammatory model [10] = test system: Anti-Inflammatory model; parameters: method as in PubChem Bioassay AID 489035; settings: ref PubChem Bioassay AID 489035; cited from earlier work
# [11] = test system: Anti-Inflammatory model (counterscreen); parameters: method as in PubChem Bioassay AID 1318; settings: ref PubChem Bioassay AID 1318; cited from earlier work
# [12] = test system: beta-2 adrenergic receptor; parameters: method as in PubChem Bioassay AID 504459; settings: ref PubChem Bioassay AID 504459; cited from earlier work
# [13] = test system: Cytotoxicity, Agonist, Histone H2A.x; parameters: method as in PubChem Bioassay AID 1224847; settings: ref PubChem Bioassay AID 1224847; cited from earlier work
# [14] = test system: Cytotoxicity, Agonist, RXR; parameters: method as in PubChem Bioassay AID 1159529; settings: ref PubChem Bioassay AID 1159529; cited from earlier work
# [15] = test system: Cytotoxicity, Agonist, vitamin D receptor (VDR); parameters: method as in PubChem Bioassay AID 743224; settings: ref PubChem Bioassay AID 743224; cited from earlier work
# [16] = test system: Cytotoxicity, Antagonist, androgen receptor (AR); parameters: method as in PubChem Bioassay AID 743041; settings: ref PubChem Bioassay AID 743041; cited from earlier work
# [17] = test system: Cytotoxicity, Antagonist, androgen receptor (AR); parameters: method as in PubChem Bioassay AID 1259242; settings: ref PubChem Bioassay AID 1259242; cited from earlier work
# T1 sequence (O42275 24-633): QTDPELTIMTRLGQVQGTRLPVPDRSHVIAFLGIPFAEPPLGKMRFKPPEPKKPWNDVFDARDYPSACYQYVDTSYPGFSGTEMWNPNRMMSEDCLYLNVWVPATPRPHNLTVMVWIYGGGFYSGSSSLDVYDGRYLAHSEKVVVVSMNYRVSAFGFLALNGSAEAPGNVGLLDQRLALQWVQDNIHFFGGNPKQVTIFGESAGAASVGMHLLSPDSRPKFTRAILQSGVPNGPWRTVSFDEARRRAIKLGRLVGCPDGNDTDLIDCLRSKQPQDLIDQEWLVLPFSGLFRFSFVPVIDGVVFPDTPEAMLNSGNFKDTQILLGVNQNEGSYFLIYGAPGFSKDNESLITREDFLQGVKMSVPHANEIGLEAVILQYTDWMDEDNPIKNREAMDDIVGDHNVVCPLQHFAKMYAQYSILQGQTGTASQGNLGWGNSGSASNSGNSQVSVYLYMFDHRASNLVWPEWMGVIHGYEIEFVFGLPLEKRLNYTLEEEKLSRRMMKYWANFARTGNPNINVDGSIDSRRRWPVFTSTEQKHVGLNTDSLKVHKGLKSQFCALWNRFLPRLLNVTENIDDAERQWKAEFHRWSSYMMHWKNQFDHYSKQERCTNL
compound,measurement,setting,value
"COc1cc([C@@H]2c3cc4c(cc3[C@H](O)[C@H]3COC(=O)[C@H]23)OCO4)cc(OC)c1OC [Podophyllotoxin, podophyllotoxin]",Inhibition of AChE TLC,[1],-
same,IC50 DPPH sequestration,[2],higher than 250 μg/mL
same,Exper. Activity,[3],Inactive
same,Exper. Activity,[4],Inactive
same,Exper. Activity,[5],Inactive
same,Exper. Activity,[6],Inactive
same,Exper. Activity,"Agonist, hypoxia",Inactive
same,Exper. Activity,"Agonist, p53",Inactive
same,Exper. Activity,[7],Inactive
same,Exper. Activity,Angiogenesis model,Active
same,Exper. Activity,"Anticancer, Colon Tumor",Inactive
same,Exper. Activity,"Anticancer, Lung Tumor",Inactive
same,Exper. Activity,"Anticancer, Sarcoma",Active
same,Exper. Activity,Anti-Inflammatory model [8],Active
same,Exper. Activity,Anti-Inflammatory model [9],Inactive
same,Exper. Activity,Anti-Inflammatory model [10],Inactive
same,Exper. Activity,[11],Inactive
same,Exper. Activity,[12],Inactive
same,Exper. Activity,[13],Inactive
same,Exper. Activity,[14],Inactive
same,Exper. Activity,[15],Inactive
same,Exper. Activity,[16],Inactive
same,Exper. Activity,[17],Inactive
